Test results reported in US20150105252A1, “SUBSTITUTED PYRAZOLES AS HERBICIDES” (E I DU PONT DE NEMOURS AND COMPANY, priority 2013, published 2015).

Key:
[1] = test system: barnyardgrass; assay: Test A preemergence; type: in vivo, Echinochloa crus-galli; conditions: preemergence
Procedure, shortened: (§1)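 Pre- and postemergence greenhouse test; loam+sand; cpd in non-phytotox. solvent/surfactant; post at 1–2 leaf, 2–10 cm; visual score ~10 d, 0 = none, 100 = complete control.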

[2] = test system: foxtail, giant; assay: Test A preemergence; type: in vivo, Setaria faberii; conditions: preemergence
Procedure, shortened: as §1

[3] = test system: morningglory; assay: Test A preemergence; type: in vivo, Ipomoea spp.; conditions: preemergence
Procedure, shortened: as §1

[4] = test system: velvetleaf; assay: Test A preemergence; type: in vivo, Abutilon theophrasti; conditions: preemergence
Procedure, shortened: as §1

[5] = test system: velvetleaf; assay: Test A postemergence; type: in vivo, Abutilon theophrasti
Procedure, shortened: as §1

[6] = test system: barnyardgrass; assay: Test B flood; type: in vivo, Echinochloa crus-galli; conditions: 250 g ai/ha, visual rating on 0 to 100 scale (0 no effect, 100 complete control), 13 to 15 days
Procedure, shortened: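 Plants were grown to the 2-leaf stage, then pots were flooded to 3 cm above the soil and compounds were applied directly into the paddy water. Water depth was held for the whole test; after 13 to 15 days in a greenhouse, injury was visually rated against untreated controls (0 = no effect, 100 = complete control).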

[7] = test system: ryegrass, Italian; assay: Test C preemergence; type: in vivo, Lolium multiflorum; conditions: for Plant response rating (scale of 0 to 100), Ryegrass, Italian: Preemergence, 250 g ai/ha; for Ryegrass, Italian plant response rating / Plant response rating, Ryegrass, Italian: preemergence, 13 to 15 days; for Ryegrass, Italian plant response rating: scale 0 to 100 (0 no effect, 100 complete control); for Plant response rating, Ryegrass, Italian: 125 g ai/ha, scale 0 to 100, 0 = no effect, 100 = complete control
Procedure, shortened: (§2)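 Seeds sown in loam–sand blend and treated preemergence with test chemicals in non-phytotoxic solvent with surfactant; postemergence plants in peat-based medium, treated at 2–18 cm (1- to 4-leaf stage). Greenhouse 13 to 15 days, then visual rating versus controls, 0 (no effect) to 100 (complete control).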

[8] = test system: corn; assay: Test C preemergence; type: in vivo, Zea mays; conditions: for Plant response rating (scale of 0 to 100), Corn: Preemergence, 250 g ai/ha; for Corn plant response rating / Plant response rating, Corn: preemergence, 13 to 15 days; for Corn plant response rating: scale 0 to 100 (0 no effect, 100 complete control); for Plant response rating, Corn: 125 g ai/ha, scale 0 to 100, 0 = no effect, 100 = complete control
Procedure, shortened: as §2

[9] = test system: crabgrass, large; assay: Test C preemergence; type: in vivo, Digitaria sanguinalis; conditions: for Plant response rating (scale of 0 to 100), Crabgrass, Large: Preemergence, 250 g ai/ha; for Crabgrass, Large plant response rating / Plant response rating, Crabgrass, Large: preemergence, 13 to 15 days; for Crabgrass, Large plant response rating: scale 0 to 100 (0 no effect, 100 complete control); for Plant response rating, Crabgrass, Large: 125 g ai/ha, scale 0 to 100, 0 = no effect, 100 = complete control
Procedure, shortened: as §2

[10] = test system: foxtail, giant; assay: Test C preemergence; type: in vivo, Setaria faberii; conditions: for Plant response rating (scale of 0 to 100), Foxtail, Giant: Preemergence, 250 g ai/ha; for Foxtail, Giant plant response rating / Plant response rating, Foxtail, Giant: preemergence, 13 to 15 days; for Foxtail, Giant plant response rating: scale 0 to 100 (0 no effect, 100 complete control); for Plant response rating, Foxtail, Giant: 125 g ai/ha, scale 0 to 100, 0 = no effect, 100 = complete control
Procedure, shortened: as §2

[11] = test system: johnsongrass; assay: Test C preemergence; type: in vivo, Sorghum halepense; conditions: for Plant response rating (scale of 0 to 100), Johnsongrass: Preemergence, 250 g ai/ha; for Johnsongrass plant response rating / Plant response rating, Johnsongrass: preemergence, 13 to 15 days; for Johnsongrass plant response rating: scale 0 to 100 (0 no effect, 100 complete control); for Plant response rating, Johnsongrass: 125 g ai/ha, scale 0 to 100, 0 = no effect, 100 = complete control
Procedure, shortened: as §2

[12] = test system: ragweed; assay: Test C preemergence; type: in vivo, Ambrosia elation; conditions: for Plant response rating (scale of 0 to 100), Ragweed: Preemergence, 250 g ai/ha; for Ragweed plant response rating / Plant response rating, Ragweed: preemergence, 13 to 15 days; for Ragweed plant response rating: scale 0 to 100 (0 no effect, 100 complete control); for Plant response rating, Ragweed: 125 g ai/ha, scale 0 to 100, 0 = no effect, 100 = complete control
Procedure, shortened: as §2

[13] = test system: barnyardgrass; assay: Test C preemergence; type: in vivo, Echinochloa crus-galli; conditions: for Plant response rating (scale of 0 to 100), Barnyardgrass: Preemergence, 250 g ai/ha; for Barnyardgrass plant response rating / Plant response rating, Barnyardgrass: preemergence, 13 to 15 days; for Barnyardgrass plant response rating: scale 0 to 100 (0 no effect, 100 complete control); for Plant response rating, Barnyardgrass: 125 g ai/ha, scale 0 to 100, 0 = no effect, 100 = complete control
Procedure, shortened: as §2

[14] = test system: oilseed rape; assay: Test C preemergence; type: in vivo, Brassica napus; conditions: for Plant response rating (scale of 0 to 100), Oilseed Rape: Preemergence, 250 g ai/ha; for Oilseed Rape plant response rating / Plant response rating, Oilseed Rape: preemergence, 13 to 15 days; for Oilseed Rape plant response rating: scale 0 to 100 (0 no effect, 100 complete control); for Plant response rating, Oilseed Rape: 125 g ai/ha, scale 0 to 100, 0 = no effect, 100 = complete control
Procedure, shortened: as §2

[15] = 125 g ai/ha, visual injury, 0 to 100 scale, approx. 10 days
[16] = 500 g ai/ha, visual injury after approx. 10 days, 0 to 100 scale (0 no effect, 100 complete control)
[17] = Postemergence, 500 g ai/ha, 0 to 100 scale (0 no effect, 100 complete control)
[18] = postemergence, 125 g ai/ha, about 10 days, visual rating on 0 to 100 scale (0 no effect, 100 complete control)

In the case of `CCNC(=O)c1cc(CC)n(Cc2ccnc(OC(F)F)c2)n1` [Compound 130], the “Barnyardgrass plant response rating” value [1, 15] is reported as 90, the “Barnyardgrass plant response rating” value [1, 16] is reported as 100 and the “Foxtail, Giant plant response rating” value [2, 15] is reported as 100. For the same molecule, the “Foxtail, Giant plant response rating” value [2, 16] was 100, the “Morningglory plant response rating” value [3, 15] was 100 and the “Morningglory plant response rating” value [3, 16] was 100. The “Velvetleaf plant response rating” value [4, 15] was 70, the “Velvetleaf plant response rating” value [4, 16] was 100 and the “Velvetleaf plant response rating” value [5, 17] was 100. For the same molecule, the “Velvetleaf plant response rating” value [5, 18] was 80, the “Plant response rating, Barnyardgrass” value [6] was 40 and the “Plant response rating (scale of 0 to 100), Ryegrass, Italian” value [7] was 98. For the same molecule, the “Ryegrass, Italian plant response rating” value ([7]; 31 g ai/ha, visual rating) was 5, the “Ryegrass, Italian plant response rating” value ([7]; 62 g ai/ha) was 25 and the “Plant response rating, Ryegrass, Italian” value [7] was 65. For the same molecule, the “Plant response rating (scale of 0 to 100), Corn” value [8] was 85, the “Corn plant response rating” value ([8]; 31 g ai/ha, visual rating) was 5 and the “Corn plant response rating” value ([8]; 62 g ai/ha) was 30. For the same molecule, the “Plant response rating, Corn” value [8] was 45, the “Plant response rating (scale of 0 to 100), Crabgrass, Large” value [9] was 100 and the “Crabgrass, Large plant response rating” value ([9]; 31 g ai/ha, visual rating) was 100. The “Crabgrass, Large plant response rating” value ([9]; 62 g ai/ha) was 100, the “Plant response rating, Crabgrass, Large” value [9] was 100 and the “Plant response rating (scale of 0 to 100), Foxtail, Giant” value [10] was 100. The “Foxtail, Giant plant response rating” value ([10]; 31 g ai/ha, visual rating) was 70, the “Foxtail, Giant plant response rating” value ([10]; 62 g ai/ha) was 95 and the “Plant response rating, Foxtail, Giant” value [10] was 100. The “Plant response rating (scale of 0 to 100), Johnsongrass” value [11] was 95, the “Johnsongrass plant response rating” value ([11]; 31 g ai/ha, visual rating) was 35 and the “Johnsongrass plant response rating” value ([11]; 62 g ai/ha) was 65. The “Plant response rating, Johnsongrass” value [11] was 75, the “Plant response rating (scale of 0 to 100), Ragweed” value [12] was 100 and the “Ragweed plant response rating” value ([12]; 31 g ai/ha, visual rating) was 70. The “Ragweed plant response rating” value ([12]; 62 g ai/ha) was 100, the “Plant response rating, Ragweed” value [12] was 100 and the “Plant response rating (scale of 0 to 100), Barnyardgrass” value [13] was 100. For the same molecule, the “Barnyardgrass plant response rating” value ([13]; 31 g ai/ha) was 50, the “Barnyardgrass plant response rating” value ([13]; 62 g ai/ha) was 85 and the “Plant response rating, Barnyardgrass” value [13] was 100. The “Plant response rating (scale of 0 to 100), Oilseed Rape” value [14] was 100, the “Oilseed Rape plant response rating” value ([14]; 31 g ai/ha, visual rating) was 75 and the “Oilseed Rape plant response rating” value ([14]; 62 g ai/ha) was 98. The “Plant response rating, Oilseed Rape” value [14] was 98.

For `CCCNC(=O)c1cc(CC)n(Cc2ccnc(OC(F)F)c2)n1` [Compound 132], the “Barnyardgrass plant response rating” value [1, 15] was 100, the “Barnyardgrass plant response rating” value [1, 16] was 100 and the “Foxtail, Giant plant response rating” value [2, 15] was 100. For the same molecule, the “Foxtail, Giant plant response rating” value [2, 16] was 100, the “Morningglory plant response rating” value [3, 15] was 100 and the “Morningglory plant response rating” value [3, 16] was 100. The “Velvetleaf plant response rating” value [4, 15] was 100, the “Velvetleaf plant response rating” value [4, 16] was 100 and the “Velvetleaf plant response rating” value [5, 17] was 100. For the same molecule, the “Velvetleaf plant response rating” value [5, 18] was 100, the “Plant response rating, Barnyardgrass” value [6] was 60 and the “Plant response rating (scale of 0 to 100), Ryegrass, Italian” value [7] was 98. For the same molecule, the “Ryegrass, Italian plant response rating” value ([7]; 31 g ai/ha, visual rating) was 15, the “Ryegrass, Italian plant response rating” value ([7]; 62 g ai/ha) was 85 and the “Plant response rating, Ryegrass, Italian” value [7] was 98. The “Plant response rating (scale of 0 to 100), Corn” value [8] was 95, the “Corn plant response rating” value ([8]; 31 g ai/ha, visual rating) was 55 and the “Corn plant response rating” value ([8]; 62 g ai/ha) was 25. The “Plant response rating, Corn” value [8] was 95, the “Plant response rating (scale of 0 to 100), Crabgrass, Large” value [9] was 100 and the “Crabgrass, Large plant response rating” value ([9]; 31 g ai/ha, visual rating) was 98. The “Crabgrass, Large plant response rating” value ([9]; 62 g ai/ha) was 100, the “Plant response rating, Crabgrass, Large” value [9] was 100 and the “Plant response rating (scale of 0 to 100), Foxtail, Giant” value [10] was 100. For the same molecule, the “Foxtail, Giant plant response rating” value ([10]; 31 g ai/ha, visual rating) was 95, the “Foxtail, Giant plant response rating” value ([10]; 62 g ai/ha) was 100 and the “Plant response rating, Foxtail, Giant” value [10] was 100. The “Plant response rating (scale of 0 to 100), Johnsongrass” value [11] was 100, the “Johnsongrass plant response rating” value ([11]; 31 g ai/ha, visual rating) was 25 and the “Johnsongrass plant response rating” value ([11]; 62 g ai/ha) was 90. The “Plant response rating, Johnsongrass” value [11] was 100, the “Plant response rating (scale of 0 to 100), Ragweed” value [12] was 100 and the “Ragweed plant response rating” value ([12]; 31 g ai/ha, visual rating) was 70. For the same molecule, the “Ragweed plant response rating” value ([12]; 62 g ai/ha) was 90, the “Plant response rating, Ragweed” value [12] was 100 and the “Plant response rating (scale of 0 to 100), Barnyardgrass” value [13] was 100. The “Barnyardgrass plant response rating” value ([13]; 31 g ai/ha) was 95, the “Barnyardgrass plant response rating” value ([13]; 62 g ai/ha) was 100 and the “Plant response rating, Barnyardgrass” value [13] was 100. For the same molecule, the “Plant response rating (scale of 0 to 100), Oilseed Rape” value [14] was 100, the “Oilseed Rape plant response rating” value ([14]; 31 g ai/ha, visual rating) was 75 and the “Oilseed Rape plant response rating” value ([14]; 62 g ai/ha) was 98. The “Plant response rating, Oilseed Rape” value [14] was 100.
